Measurements from patent US20100235931A1, “Novel Neurological Function of mPKCI” (priority 2006, published 2010).
“Also recorded” adds a separate entry of the source.

Experiments:
mPKCI WT and KO mice = experiment: Locomotor activity measurement (open field, ambulation and stereotypy); format: in vivo
Method: The generation of PKCI^−/− mice was described previously (Su et al, 2003, supra). PKCI^−/− mice and their wild type littermates were derived by breeding heterozygous […] mice for altered PKCI allele (Hint1) and genotype of the animals was confirmed by PCR of DNA from tail biopsies. Animals were housed 4-6/cage, maintained under standard laboratory condition with food and water provided ad libitum. The male animals were tested between 10-20 weeks of age. Wild type and PKCI^−/− groups were matched for age in all experiments. All studies were conducted with an approved protocol from University of Maryland, School of Pharmacy IACUC.
Mice locomotor activity was monitored during an open field test using “Activity Monitor” chambers (27×27×20.3 cm) associated with the Activity Monitor software (Med Associates Inc St Albans Vt.). Room temperature was set at 23° C.+/−2° C. Horizontal spontaneous locomotion activity, scored as ambulatory counts and stereotypic movements (Sanberg P. R. et al 1987, Pharmacol. Biochem. Behav. 27, 569-72), was recorded during the first 30 min of acclimatization to the novel environment and during 120 min following the treatment. The animals were acclimated to a 12 h cycle light/dark phase with the light on at 7:00 am before the experiments. Tests were performed during the light phase of the cycle between 8:00 am to 3:00 pm. AMPH or other drugs was prepared freshly before each experiment by dissolving in saline (NaCl 0.9%) and administered via intra peritoneal in a total volume of 10 ml/kg at the indicated doses.

mice [1] = conditions: 10 mg/kg dose; cited from earlier work
PKCI KO mice = experiment: Conditional place preference test; format: in vivo; conditions: preliminary data
Excerpt: Finally, we are looking at the involvement of PKCI in the rewarding function in PKCI KO mice. In this study, we are testing the response of the KO mice to the reward action of amphetamine and cocaine by using conditional place preference test.

[2] = system: extracellular DA in nucleus accumbens and caudate-putamen of mPKCI WT and KO mice; experiment: In vivo microdialysis, amphetamine-evoked extracellular DA; conditions: 2.5 mg/kg ip, conventional microdialysis, FIG. 4
Method: PKCI^−/− mice and their WT controls were anesthetized and implanted unilaterally with a microdialysis guide cannula (CMA/11, CMA microdialysis) in the nucleus accumbens (AP: +1.5, L: −0.8, V: −3.8 from bregma) or the dorsal striatum (AP: +0.4, L−2.1, V−2.2 from bregma) using standard stereotaxic techniques, and allowed to recover for 5 days prior to the microdialysis experiment as described. […]
For no net flux experiments, five different concentrations of DA (0, 5, 10, 20 and 40 nM) in aCSF were perfused in random order through the dialysis probe. […] The DA content was determined by HPLC coupled to electrochemical detection with an external standard. All the samples were analyzed within 48 hours of collection. […] No net flux data was analyzed as described (Chefer et al 2006, supra). The net flux of DA through the probe (DAin-DAout) was calculated and plotted against the concentration of DA perfused (DAin). The following parameters were calculated from the resulting linear function. […] In the conventional microdialysis experiments investigating the effects of amphetamine, the average of the three baseline samples was calculated, and all the DA concentrations were expressed as % of baseline. […]

[3] = system: PKCI/HINT1 WT and KO mice; experiment: Tail suspension test, effect of haloperidol; format: in vivo
Excerpt: In order to confirm the results of the forced swim test while removing any bias introduced by the animal's swimming or learning capacity, we used the tail suspension test. This test assesses depression trait using coping behavior in a stressful situation (Cryan J F et al., 2005, Neruosc. Behav. Rev. 29, 571-625). The animals are exposed to a […] stress of being hung in an uncontrollable fashion by the tail for six minutes. Immobility, considered as a depression trait when the animal gives up any escape, is reported in seconds. Data are expressed as mean+/−SEM and analyzed using a 2 way ANOVA (age×genotype) followed by Bonferroni when p<0.05.
Haloperidol 0.05 mg/kg and 0.1 mg/kg were administered via intra-peritoneal (10 ml/kg) 30 minutes before the test. Data are expressed as mean+/−SEM and analyzed using a 2 way ANOVA (treatment×genotype) followed by Bonferroni when p<0.05.

mice [4] = conditions: previously described; cited from earlier work

CN1CCc2cccc3c2[C@H]1Cc1ccc(O)c(O)c1-3 [apomorphine]
locomotor activity (total ambulation and stereotyped behavior), KO compared with WT (mPKCI WT and KO mice; apomorphine 10 mg/kg i.p., FIG. 5): significantly higher locomotor activity as compared with WT

CN1CC[C@]23c4c5ccc(O)c4O[C@H]2[C@@H](O)C=C[C@H]3[C@H]1C5 [morphine]
effect on locomotor activity (mPKCI WT and KO mice; morphine 10 mg/kg i.p., 120 min after treatment, WT and KO mice, FIG. 2): did not promote increase in locomotor activity; also recorded: depressive locomotor effect on both wild type and knockout mice | locomotion (mice [1]): a decrease in locomotion was often observed

C[C@H](N)Cc1ccccc1 [amphetamine, D-amphetamine]
response of KO mice to reward action (PKCI KO mice): higher response | amphetamine-evoked DA response, WT vs KO [2]: No significant difference between WT and KO mice; also recorded: did not differ in WT and KO animals | effect on locomotion (mPKCI WT and KO mice; AMPH 2.5 mg/kg i.p., 120 min after treatment, WT and KO mice, FIG. 2): increased locomotion in both WT and KO animals | amphetamine-evoked locomotor response, PKCI KO compared with WT (mPKCI WT and KO mice; AMPH 2.5 mg/kg i.p., KO vs WT): three times more | increase in amphetamine-evoked activity in mPKCI KO mice, dose response (mPKCI WT and KO mice; D-AMPH 1.25, 2.5 and 5 mg/kg i.p., FIG. 3): consistent across a range of amphetamine doses

O=C(CCCN1CCC(O)(c2ccc(Cl)cc2)CC1)c1ccc(F)cc1 [Haloperidol]
immobility compared with saline treatment ([3]; 0.05 mg/kg and 0.1 mg/kg i.p. 30 minutes before the test, WT and KO, FIG. 8): increased immobility in both WT and KO animals | increase in immobility in KO mice relative to WT level ([3]; 0.1 mg/kg, 3 months and 15 months old): reaching the level attained by WT animals | mice immobility in the tail suspension test (mice [4]): increase mice immobility
